Data published in ChEMBL document CHEMBL1909046, “DrugMatrix in vitro pharmacology data”.

Tests used:
[1] = biological target: Protein kinase C alpha type (Homo sapiens, UniProt P17252); type: cell-based; conditions: sf9;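 also: inhibition of PKCalpha kinase activity measured in an enzyme assay with histone as the phosphorylation substrate; in other assays of this panel Not Active means under 50% inhibition at 10 µM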
D(4) dopamine receptor = biological target: T1, D(4) dopamine receptor (Homo sapiens, UniProt P21917); assay: DRUGMATRIX: Dopamine D4.2 radioligand binding (ligand: [3H] Spiperone); type: cell membranes, CHO-K1, Membrane; conditions: cho-k1; Not Active = under 50% inhibition at 10 µM
T1 sequence (P21917 whole entry): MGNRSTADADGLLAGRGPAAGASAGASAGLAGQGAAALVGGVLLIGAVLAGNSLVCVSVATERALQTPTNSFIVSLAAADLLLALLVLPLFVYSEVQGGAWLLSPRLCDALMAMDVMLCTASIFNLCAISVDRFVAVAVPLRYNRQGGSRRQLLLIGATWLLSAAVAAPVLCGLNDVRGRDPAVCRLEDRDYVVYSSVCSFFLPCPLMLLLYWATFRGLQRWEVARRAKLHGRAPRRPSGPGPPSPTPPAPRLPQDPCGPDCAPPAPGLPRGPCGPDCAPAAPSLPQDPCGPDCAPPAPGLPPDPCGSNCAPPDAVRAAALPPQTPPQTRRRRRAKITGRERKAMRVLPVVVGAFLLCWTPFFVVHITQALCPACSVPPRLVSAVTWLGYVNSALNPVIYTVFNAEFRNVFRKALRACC

[2] = biological target: cGMP-specific 3',5'-cyclic phosphodiesterase (Homo sapiens, UniProt O76074); assay: DRUGMATRIX: Phosphodiesterase PDE5 enzyme inhibition (substrate: [3H]cGMP + cGMP); type: tissue-based; conditions: platelet; Not Active = under 50% inhibition at 10 µM
[3] = biological target: Tyrosine-protein kinase Fyn (Homo sapiens, UniProt P06241); assay: biochemical; type: cell-based, Insect cells; conditions: insect cells;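 also: enzymatic inhibition of Fyn kinase activity measured with Poly(Glu:Tyr) as the phosphorylation substrate; in other assays of this panel Not Active means under 50% inhibition at 10 µM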
Sequence of Tyrosine-protein kinase Fyn (P06241 whole entry): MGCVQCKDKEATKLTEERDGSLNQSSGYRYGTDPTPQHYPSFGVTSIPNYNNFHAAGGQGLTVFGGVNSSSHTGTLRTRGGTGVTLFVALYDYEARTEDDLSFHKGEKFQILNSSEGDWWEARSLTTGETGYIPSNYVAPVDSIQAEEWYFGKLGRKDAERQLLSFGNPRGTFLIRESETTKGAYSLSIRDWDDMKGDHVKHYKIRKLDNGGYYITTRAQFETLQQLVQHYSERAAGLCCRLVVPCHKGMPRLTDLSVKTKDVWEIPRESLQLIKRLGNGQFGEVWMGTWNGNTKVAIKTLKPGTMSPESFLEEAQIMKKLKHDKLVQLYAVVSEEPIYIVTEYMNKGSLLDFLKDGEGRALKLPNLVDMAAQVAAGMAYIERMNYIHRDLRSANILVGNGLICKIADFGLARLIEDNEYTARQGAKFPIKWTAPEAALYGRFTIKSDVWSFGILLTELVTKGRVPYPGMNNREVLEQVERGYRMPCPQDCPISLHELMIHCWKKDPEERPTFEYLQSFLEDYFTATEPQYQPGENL

[4] = biological target: Sodium-dependent noradrenaline transporter (Homo sapiens, UniProt P23975); assay: DRUGMATRIX: Norepinephrine Transporter radioligand binding (ligand: [125I] RTI-55); type: cell membranes, MDCK, Membrane; conditions: mdck; Not Active = under 50% inhibition at 10 µM
Sequence of Sodium-dependent noradrenaline transporter (P23975 whole entry): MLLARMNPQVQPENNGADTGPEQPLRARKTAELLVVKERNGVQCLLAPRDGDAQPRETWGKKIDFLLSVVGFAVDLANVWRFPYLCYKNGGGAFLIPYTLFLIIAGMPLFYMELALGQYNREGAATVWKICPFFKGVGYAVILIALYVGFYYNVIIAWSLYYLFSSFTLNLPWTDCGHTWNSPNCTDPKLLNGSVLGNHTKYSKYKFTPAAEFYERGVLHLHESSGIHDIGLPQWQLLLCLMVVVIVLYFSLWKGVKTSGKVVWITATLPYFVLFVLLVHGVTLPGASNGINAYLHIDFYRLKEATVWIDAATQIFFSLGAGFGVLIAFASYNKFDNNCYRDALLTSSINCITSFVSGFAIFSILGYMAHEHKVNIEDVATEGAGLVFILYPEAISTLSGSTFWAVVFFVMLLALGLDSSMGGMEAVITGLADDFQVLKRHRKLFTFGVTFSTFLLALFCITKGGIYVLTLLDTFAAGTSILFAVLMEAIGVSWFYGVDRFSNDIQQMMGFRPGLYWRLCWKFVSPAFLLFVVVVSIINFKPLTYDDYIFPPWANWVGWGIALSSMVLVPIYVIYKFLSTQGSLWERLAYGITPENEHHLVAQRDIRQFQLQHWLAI

[5] = biological target: Sodium-dependent dopamine transporter (Homo sapiens, UniProt Q01959); assay: DRUGMATRIX: Dopamine Transporter radioligand binding (ligand: [125I] RTI-55); type: cell membranes, CHO-K1, Membrane; conditions: cho-k1; Not Active = under 50% inhibition at 10 µM
Sequence of Sodium-dependent dopamine transporter (Q01959 whole entry): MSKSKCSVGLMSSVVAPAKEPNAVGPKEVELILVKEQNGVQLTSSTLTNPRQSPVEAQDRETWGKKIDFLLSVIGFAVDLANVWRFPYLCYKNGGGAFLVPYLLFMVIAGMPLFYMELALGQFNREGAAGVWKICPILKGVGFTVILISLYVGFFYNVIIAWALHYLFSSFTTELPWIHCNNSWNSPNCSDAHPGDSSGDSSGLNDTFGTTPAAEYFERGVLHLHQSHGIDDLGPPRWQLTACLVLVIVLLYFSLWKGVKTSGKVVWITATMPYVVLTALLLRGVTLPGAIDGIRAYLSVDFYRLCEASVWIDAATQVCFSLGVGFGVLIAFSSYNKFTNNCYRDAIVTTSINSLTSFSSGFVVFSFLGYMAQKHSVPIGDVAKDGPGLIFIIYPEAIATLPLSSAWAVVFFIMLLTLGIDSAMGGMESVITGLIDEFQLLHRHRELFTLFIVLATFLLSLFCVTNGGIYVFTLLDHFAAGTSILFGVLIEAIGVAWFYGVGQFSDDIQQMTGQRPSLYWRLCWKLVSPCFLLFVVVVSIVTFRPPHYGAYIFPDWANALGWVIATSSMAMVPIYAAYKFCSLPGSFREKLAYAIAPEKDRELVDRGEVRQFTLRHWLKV

Measured: IC50

C[C@]12CC[C@H]3[C@@H](CCC4=CC(=O)CC[C@@]43C)[C@@H]1CC[C@@H]2O [TESTOSTERONE]
Not Active: all assays above

CN1C2CCCC1CC(NC(=O)c1nn(C)c3ccccc13)C2 (stereo not drawn) [GRANISETRON]
Not Active: all assays above

COc1ccc(/C=C/C(=O)Nc2ccccc2C(=O)O)cc1OC
Not Active: all assays above
